Assay results taken from US11179397B2, “Imidazopyrimidine derivatives” (Gilead Sciences, Inc., priority 2018, dated 2021).

These molecules were tested on NCI-H358 cells (assay: NCI-H358 3D tumor spheroid growth inhibition). Details: Homo sapiens, NCI-H358, 168 h, 3D spheroids, 7 days, 3D CellTiter Glo; cellular IC50 designated EC50; read-out: H358 EC50.
Type: cell-based
Source text: SHP-2 Cell Based Assay: […] Materials NCI-H358 cell line was purchased from [NT] number ATCC CRL-5807) (Manassas, Va.). RPMI-1640 (Catalog number 10-040-CM) was from Corning Cellgro (Manassas, Va.), Fetal Bovine Serum (FBS) (Catalog number SH30071.03) was from HyClone (Logan, Utanh), and 100× Penicillin/Streptomycin/L-Glutamine stock (Catalog no. 30-009-CI) and 384-well ULA plates (Catalog number 3830) were from Corning (Fremont, Calif.). Method […] At the day of assay, the cells were trypsinized and seeded at 1000 cells/70 μl/well in 384-well ULA plates and incubated at 37° C. incubator with 5% CO2 to allow spheroids to form. […] The plates were incubated for additional 7 days. Then 35 μl of medium from each well was removed, and replaced with 35 μl of 3D CellTiter Glo reagent from Promega. The wells were mixed by pipetting up and down with Biomek FX for 15 times to induce cell lysis and the plates were incubated at room temperature for additional 10 min to stabilize luminescent signal. The luminescence was then read by Envision. The inhibitor dose response curves were generated using normalized cellular IC50 (designated as EC50 in all FIGURES to distinguish from biochemical IC50s) by in house dose response analyses tools. The wells with DMSO vehicle were used as negative controls (0% inhibition). The % inhibition of SHP-2 compounds was calculated as: 100-[(Compound well luminescence counts/DMSO luminescence counts)×100%].

| SMILES | EC50 [nM] |
| --- | --- |
| Cc1nc(N2CCC3(CCC[C@H]3N)CC2)n2ccnc2c1-c1cnc(N)c(Cl)c1Cl [Example 27] | 180 |
| N[C@@H]1CCCC12CCN(c1ncc(Sc3cccc4ncccc34)c3nccn13)CC2 [Example 84] | 240 |
| C[C@@H]1OCC2(CCN(c3ncc(Sc4cc(N)ncc4C(F)(F)F)c4ncc(Cl)n34)CC2)[C@@H]1N [Example 39] | 570 |

The molecules below were run against SHP-2 full length protein (Homo sapiens (Human), UniProt Q06124) (assay: SHP-2 biochemical DiFMUP pseudosubstrate-fluorogenic assay). Details: 0.2 nM SHP-2, 1 μM IRS-1 activator peptide, 50 μM DiFMUP; read-out: SHP2 IC50.
Chain of SHP-2 full length protein (Q06124 whole entry): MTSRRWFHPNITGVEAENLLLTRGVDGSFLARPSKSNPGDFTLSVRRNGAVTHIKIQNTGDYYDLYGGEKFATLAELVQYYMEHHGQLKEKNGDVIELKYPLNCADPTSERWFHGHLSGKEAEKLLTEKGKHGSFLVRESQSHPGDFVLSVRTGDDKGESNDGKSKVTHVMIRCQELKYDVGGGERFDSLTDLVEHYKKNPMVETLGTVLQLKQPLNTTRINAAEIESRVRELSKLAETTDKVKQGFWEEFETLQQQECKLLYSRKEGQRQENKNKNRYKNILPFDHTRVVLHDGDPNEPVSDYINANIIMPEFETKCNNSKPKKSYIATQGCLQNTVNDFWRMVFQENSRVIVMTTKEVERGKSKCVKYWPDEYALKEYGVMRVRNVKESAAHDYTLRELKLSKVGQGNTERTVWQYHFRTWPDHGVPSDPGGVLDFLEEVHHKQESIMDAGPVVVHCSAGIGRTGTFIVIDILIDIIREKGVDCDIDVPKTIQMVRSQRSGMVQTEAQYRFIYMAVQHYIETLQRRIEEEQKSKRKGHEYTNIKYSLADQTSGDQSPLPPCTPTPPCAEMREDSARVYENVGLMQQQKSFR
Procedure: SHP-2 Biochemical Assay Materials Recombinant SHP-2 full length protein was generated in house. SHP-2 protein tyrosine phosphatase (PTP) domain protein (Catalog number SPR0217-20 ug), NaCl (Catalog number S6546-1L), and KCl (Catalog number 60142-500 mL) were purchased from Sigma-Aldrich (St. Louis, Mo.). IRS-1_[…](dPEG8)[…] peptide […]) was custom made by AnaSpec (Fremont, Calif.). DiFMUP substrate (Catalog number D6567), EDTA (Catalog number E177-500 mL), DTT (Catalog number P2325), and 384-well black polystyrene non-binding surface (Catalog number 3820) were purchased from Fisher Scientific (Hanover Park, Ill.). HEPES (Catalog number 15630-080) was purchased from Life Technologies (Pleasanton, Calif.), and Tween-20 (Catalog number 95059-250) was purchased from VWR (Radnor, Pa.). Method Inhibition of SHP-2 activity by small molecule inhibitors was monitored by a biochemical DiFMUP pseudosubstrate-fluorogenic assay. […] The reaction mix was added to the 384-well non-binding plate which had been pre-spotted with 1:3 serial diluted compounds from 10,000-0.005 nM, and incubated at room temperature for 90 min. DiFMUP substrate at final concentration of 50 μM was then added to the wells and incubated for additional 30 min at room temperature. The final reaction volume was 20 μl/well. […] The inhibitor dose response curves were generated using normalized IC50 regression curve fitting by in house dose response analysis tools. The wells with DMSO vehicle were used as controls (100% signal). The percent (%) control of SHP-2 compound was calculated as: (Compound well fluorescence counts/DMSO fluorescence counts)×100%.

| SMILES | IC50 [nM] |
| --- | --- |
| Cc1cnn(C)c1-c1c(C)nc(N2CCC3(CCC[C@H]3N)CC2)n2ccnc12 [Example 14, (R)-8-(8-(1,4-dimethyl-1H-pyrazol-5-yl)-7-methylimidazo[1,2-c]pyrimidin-5-yl)-8-azaspiro[4.5]decan-1-amine] | > 10000 |
| Cc1nc(N2CCC3(CCC[C@H]3N)CC2)n2ncnc2c1-c1cccc(Cl)c1Cl [Example 60, (R)-8-(8-(2,3-dichlorophenyl)-7-methyl-[1,2,4]triazolo[1,5-c]pyrimidin-5-yl)-8-azaspiro[4.5]decan-1-amine] | 97 |
| Cc1nc(N2CCC3(CCC[C@H]3N)CC2)n2ccnc2c1-c1ccncc1 [Example 4, (R)-8-(7-methyl-8-(pyridin-4-yl)imidazo[1,2-c]pyrimidin-5-yl)-8-azaspiro[4.5]decan-1-amine] | 1800 |
| C[C@@H]1OCC2(CCN(c3ncc(Sc4ccnc5cc(C#N)ccc45)c4nccn34)CC2)[C@@H]1N [Example 125, 4-((5-((3S,4S)-4-amino-3-methyl-2-oxa-8-azaspiro[4.5]decan-8-yl)imidazo[1,2-c]pyrimidin-8-yl)thio)quinoline-7-carbonitrile] | 51 |
| NC1CCCCN(c2ncc(Sc3cccc(Cl)c3Cl)c3nccn23)C1 (stereo not drawn) [Example 59, 1-(8-((2,3-dichlorophenyl)thio)imidazo[1,2-c]pyrimidin-5-yl)azepan-3-amine] | > 10000 |
| N[C@@H]1CCCC12CCN(c1ncc(Sc3cncnc3C(F)(F)F)c3nccn13)CC2 [Example 54, (R)-8-(8-((4-(trifluoromethyl)pyrimidin-5-yl)thio)imidazo[1,2-c]pyrimidin-5-yl)-8-azaspiro[4.5]decan-1-amine] | 4800 |
| Cc1nc(N2CCC3(CCC[C@H]3N)CC2)n2ccnc2c1-c1ccccn1 [Example 6, (R)-8-(7-methyl-8-(pyridin-2-yl)imidazo[1,2-c]pyrimidin-5-yl)-8-azaspiro[4.5]decan-1-amine] | 5400 |
| Cc1nc(N2CCC3(CC2)C[C@H](O)C[C@H]3N)n2ccnc2c1-c1cccc(Cl)c1Cl [Example 34, (2S,4R)-4-amino-8-(8-(2,3-dichlorophenyl)-7-methylimidazo[1,2-c]pyrimidin-5-yl)-8-azaspiro[4.5]decan-2-ol] | 3.3 |
| Cc1nc(N2CCC3(CCC[C@H]3N)CC2)n2ccnc2c1-c1cccnc1 [Example 22, (R)-8-(7-methyl-8-(pyridin-3-yl)imidazo[1,2-c]pyrimidin-5-yl)-8-azaspiro[4.5]decan-1-amine] | 1700 |
| Nc1cc(Sc2cnc(N3CCC4(CCC[C@H]4N)CC3)n3ccnc23)c(C(F)(F)F)cn1 [Example 53, (R)-8-(8-((2-amino-5-(trifluoromethyl)pyridin-4-yl)thio)imidazo[1,2-c]pyrimidin-5-yl)-8-azaspiro[4.5]decan-1-amine] | 12 |
| Cc1noc(C)c1-c1c(C)nc(N2CCC3(CCC[C@H]3N)CC2)n2ccnc12 [Example 20] | > 10000 |
| Cc1nc(N2CCC3(CCC[C@H]3N)CC2)n2ccnc2c1-c1cccnc1C(F)(F)F [Example 19, (R)-8-(7-methyl-8-(2-(trifluoromethyl)pyridin-3-yl)imidazo[1,2-c]pyrimidin-5-yl)-8-azaspiro[4.5]decan-1-amine] | > 10000 |
| C[C@@H]1OCC2(CCN(c3ncc(Sc4ccc(N)nc4C(F)(F)F)c4nccn34)CC2)[C@@H]1N [Example 37, (3S,4S)-8-(8-((6-amino-2-(trifluoromethyl)pyridin-3-yl)thio)imidazo[1,2-c]pyrimidin-5-yl)-3-methyl-2-oxa-8-azaspiro[4.5]decan-4-amine] | 17 |
| C[C@@H]1OCC2(CCN(c3ncc(Sc4ccnc5cc(Cl)ccc45)c4nccn34)CC2)[C@@H]1N [Example 134, (3S,4S)-8-(8-((7-chloroquinolin-4-yl)thio)imidazo[1,2-c]pyrimidin-5-yl)-3-methyl-2-oxa-8-azaspiro[4.5]decan-4-amine] | 9 |
| Nc1cc(C(F)(F)F)c(Sc2cnc(N3CCC4(CCC[C@H]4N)CC3)n3ccnc23)cn1 [Example 50, (R)-8-(8-((6-amino-4-(trifluoromethyl)pyridin-3-yl)thio)imidazo[1,2-c]pyrimidin-5-yl)-8-azaspiro[4.5]decan-1-amine] | 7500 |
| Cc1nc(N2CCC3(CCC[C@H]3N)CC2)n2ccnc2c1-c1cccc2cc[nH]c12 [Example 3] | 86 |
| Nc1ccc(Sc2cnc(N3CCC4(CCC[C@H]4N)CC3)n3ccnc23)c(C(F)(F)F)n1 [Example 51, (R)-8-(8-((6-amino-2-(trifluoromethyl)pyridin-3-yl)thio)imidazo[1,2-c]pyrimidin-5-yl)-8-azaspiro[4.5]decan-1-amine] | 15 |
| Cc1nc(N2CCC3(CCC[C@H]3N)CC2)n2ccnc2c1-c1ccnc(C(F)(F)F)c1 [Example 24, (R)-8-(7-methyl-8-(2-(trifluoromethyl)pyridin-4-yl)imidazo[1,2-c]pyrimidin-5-yl)-8-azaspiro[4.5]decan-1-amine] | > 10000 |
| CC1(CN)CCN(c2ncc(Sc3cccc(Cl)c3Cl)c3nccn23)CC1 [Example 43, (1-(8-((2,3-dichlorophenyl)thio)imidazo[1,2-c]pyrimidin-5-yl)-4-methylpiperidin-4-yl)methanamine] | 23 |
| Cc1nc(N2CCC3(CCC[C@H]3N)CC2)n2ccnc2c1-c1ccccc1Cl [Example 8, (R)-8-(8-(2-chlorophenyl)-7-methylimidazo[1,2-c]pyrimidin-5-yl)-8-azaspiro[4.5]decan-1-amine] | 26 |
| Cc1nnc2c(Sc3cccc(Cl)c3Cl)cnc(N3CCC(C)(CN)CC3)n12 [Example 64, (1-(8-((2,3-dichlorophenyl)thio)-3-methyl-[1,2,4]triazolo[4,3-c]pyrimidin-5-yl)-4-methylpiperidin-4-yl)methanamine] | 800 |
| Cc1nc(N2CCC3(CCC[C@H]3N)CC2)n2cnnc2c1-c1cccc(Cl)c1Cl [Example 65, (R)-8-(8-(2,3-dichlorophenyl)-7-methyl[1,2,4]triazolo[4,3-c]pyrimidin-5-yl)-8-azaspiro[4.5]decan-1-amine] | 20 |
| C[C@@H]1OCC2(CCN(c3ncc(Sc4nccc5ccccc45)c4nccn34)CC2)[C@@H]1N [Example 118, (3S,4S)-8-(8-(isoquinolin-1-ylthio)imidazo[1,2-c]pyrimidin-5-yl)-3-methyl-2-oxa-8-azaspiro[4.5]decan-4-amine] | 550 |
| Cc1nc(N2CCC3(CCC[C@H]3N)CC2)n2ccnc2c1-c1cc(N)ncc1Cl [Example 16, (R)-8-(8-(2-amino-5-chloropyridin-4-yl)-7-methylimidazo[1,2-c]pyrimidin-5-yl)-8-azaspiro[4.5]decan-1-amine] | 570 |
| CC1(N)CCN(c2ncc(Sc3ccccc3)c3nccn23)CC1 [Example 49, 4-methyl-1-(8-(phenylthio)imidazo[1,2-c]pyrimidin-5-yl)piperidin-4-amine] | 7200 |
| Cc1nc(N2CCC3(CCC[C@H]3N)CC2)n2ccnc2c1Sc1ccc(N)nc1C(F)(F)F [Example 17, (R)-8-(8-((6-amino-2-(trifluoromethyl)pyridin-3-yl)thio)-7-methylimidazo[1,2-c]pyrimidin-5-yl)-8-azaspiro[4.5]decan-1-amine] | 9.9 |
| Cc1nc(N2CCC3(CCC[C@H]3N)CC2)n2ccnc2c1-c1ccccc1C(F)(F)F [Example 21, (R)-8-(7-methyl-8-(2-(trifluoromethyl)phenyl)imidazo[1,2-c]pyrimidin-5-yl)-8-azaspiro[4.5]decan-1-amine] | > 10000 |
